Like-named read-outs stand apart in the source and are kept apart here.
Tested on: HBV
Test: HBV-DNA Antiviral Assay Using HepG2.2.15 Cells (extracellular HBV DNA by qPCR)
Type: cell-based, hepatitis B virus (HBV)
Procedure: The following assay procedure describes the HBV antiviral assay. This assay uses HepG2.2.15 cells, which have been transfected with HBV genome, and extracellular HBV DNA quantification as endpoint. Cell viability is assessed in parallel by measuring the intracellular ATP content using the CellTiter-Glo® reagent from Promega.
On day 0, HepG2.2.15 cells were seeded in 96-well plates at a density of 6.0×10^4 cells/well (0.1 mL/well). The cells were incubated at 37° C. and 5% CO2.
On day 1, the test articles were diluted and added to cell culture wells (8 concentrations, 4-fold dilution, in duplicate). GLS4, Tenofovir and Sorafenib were used as reference compounds. 100 μL of culture medium containing the compounds was added to the plate, and the final total volume per well was 200 μL. The final concentration of DMSO in the culture medium was 0.5%. The plate map of compound treatment is shown below. The cells were cultured at 37° C. and 5% CO2 for 3 days.
On day 4, the plates were refreshed with culture media with compounds.
On day 7, cell viability was assessed using the CellTiter-Glo®, and the cell culture supernatants were collected for determination of HBV DNA by qPCR.
Extracellular DNA was isolated with QIAamp 96 DNA Blood Kit per the manufacturer's manual. HBV DNA was then quantified by qPCR with HBV specific primers and probes as specified in Table 1 using the FastStart Universal MasterMix from Roche on an ABI-7900HT. The PCR cycle program consisted of 95° C. for 10 min, followed by 40 cycles at 95° C. for 15 sec and 60° C. for 1 min.
A DNA standard was prepared by dilution of the pAAV2 HBV1.3 plasmid with concentrations ranging from 10 to 1×10^7 copies/uL and used to generate a standard curve by plotting Ct value vs. the concentration of the HBV plasmid DNA standard. The quantity of HBV DNA in each sample was determined by interpolating from the standard curve.
Cell viability was calculated as follows: % Cell viability=(luminescence value of test sample−average luminescence value of blank)/(average luminescence value of 0.5% DMSO control−average luminescence of blank)×100%. HBV DNA inhibition was calculated as follows: 100−(HBV DNA copy number of test sample−HBV DNA copy number of ETV)/HBV DNA copy number of 0.5% DMSO control−HBV DNA copy number of ETV)×100%. The CC50, EC50 and EC90 values were determined by dose-response curves fitted by GraphPad Prism using “log (agonist) vs. response—Variable slope”.

[1] = Hepatitis B virus, HBV DNA inhibition, HepG2.2.15 cells, extracellular HBV DNA by qPCR, read-out: EC50

Row | Structure (SMILES) | EC50 [1] [nM] | other results
1 | C#CC1(NC(=O)C(=O)c2c(C)c(C(=O)Nc3ccc(F)c(C#N)c3)n(C)c2C)COC1 [Compound 26, N-(3-cyano-4-fluorophenyl)-4-[[(3-ethynyloxetan-3-yl)carbamoyl]carbonyl]-1,3,5-trimethylpyrrole-2-carboxamide] |  | EC50 (Hepatitis B virus, HepG2.2.15): < 1 nM
2 | C#CCNC(=O)C(=O)c1cc(C(=O)Nc2ccc(F)c(C#N)c2)n(C)c1C [Compound 27, N-(3-cyano-4-fluoro-phenyl)-1,5-dimethyl-4-[2-oxo-2-(prop-2-ynylamino)acetyl]pyrrole-2-carboxamide] | 10 to 100 | 
3 | C#C[C@@H](COC)NC(=O)C(=O)c1c(C)c(C(=O)Nc2ccc(F)c(C#N)c2)n(C)c1C [Compound 28a, N-(3-cyano-4-fluoro-phenyl)-4-[2-[[(1S)-1-(methoxymethyl)prop-2-ynyl]amino]-2-oxo-acetyl]-1,3,5-trimethyl-pyrrole-2-carboxamide] | 1 to 10 | 
4 | C#C[C@H](COC)NC(=O)C(=O)c1c(C)c(C(=O)Nc2ccc(F)c(C#N)c2)n(C)c1C [Compound 28b, N-(3-cyano-4-fluoro-phenyl)-4-[2-[[(1R)-1-(methoxymethyl)prop-2-ynyl]amino]-2-oxo-acetyl]-1,3,5-trimethyl-pyrrole-2-carboxamide] | 1 to 10 | 
5 | Cc1c(C(=O)C(=O)NC2(c3c[nH]nn3)COC2)c(C)n(C)c1C(=O)Nc1ccc(F)c(C#N)c1 [Compound 29, N-(3-cyano-4-fluoro-phenyl)-1,3,5-trimethyl-4-[2-oxo-2-[[3-(1H-triazol-4-yl)oxetan-3-yl]amino]acetyl]pyrrole-2-carboxamide] |  | EC50 (HBV DNA inhibition, HepG2.2.15 cells, extracellular HBV DNA by qPCR, read-out: EC50): 1 to 10 nM
6 | C#C[C@H](NC(=O)C(=O)c1c(C)c(C(=O)Nc2ccc(F)c(C#N)c2)n(C)c1C)C(C)(C)C [Compound 30a, N-(3-cyano-4-fluoro-phenyl)-1,3,5-trimethyl-4-[2-oxo-2-[[(1R)-1-tert-butylprop-2-ynyl]amino]acetyl]pyrrole-2-carboxamide] | < 1 | 
7 | C#C[C@@H](NC(=O)C(=O)c1c(C)c(C(=O)Nc2ccc(F)c(C#N)c2)n(C)c1C)C(C)(C)C [Compound 30b, N-(3-cyano-4-fluoro-phenyl)-1,3,5-trimethyl-4-[2-oxo-2-[[(1S)-1-tert-butylprop-2-ynyl]amino]acetyl]pyrrole-2-carboxamide] | < 1 | 
8 | C#CC1(NC(=O)C(=O)c2c(C)c(C(=O)Nc3ccc(F)c(C#N)c3)n(C)c2C)CC(O)C1 (stereo not shown) [Compound 32, N-(3-cyano-4-fluorophenyl)-4-[[(1-ethynyl-3-hydroxycyclobutyl)carbamoyl]carbonyl]-1,3,5-trimethylpyrrole-2-carboxamide] | 1 to 10 | 
9 | C=CC1(NC(=O)C(=O)c2c(C)c(C(=O)Nc3ccc(F)c(C#N)c3)n(C)c2C)COC1 [Compound 33, N-(3-cyano-4-fluoro-phenyl)-1,3,5-trimethyl-4-[2-oxo-2-[(3-vinyloxetan-3-yl)amino]acetyl]pyrrole-2-carboxamide] | 1 to 10 | 
10 | C#CC1(NC(=O)C(=O)c2c(C)c(C(=O)Nc3ccc(F)c(C(F)(F)F)c3)n(C)c2C)COC1 [Compound 34, 4-[2-[(3-ethynyloxetan-3-yl)amino]-2-oxo-acetyl]-N-[4-fluoro-3-(trifluoromethyl)phenyl]-1,3,5-trimethyl-pyrrole-2-carboxamide] | < 1 | 
11 | C#CC(C)(C)NC(=O)C(=O)c1c(C)c(C(=O)Nc2ccc(F)c(C(F)(F)F)c2)n(C)c1C [Compound 35, 4-[2-(1,1-dimethylprop-2-ynylamino)-2-oxo-acetyl]-N-[4-fluoro-3-(trifluoromethyl)phenyl]-1,3,5-trimethyl-pyrrole-2-carboxamide] | < 1 | 
12 | C=C[C@H](NC(=O)C(=O)c1c(C)c(C(=O)Nc2ccc(F)c(C#N)c2)n(C)c1C)C(F)(F)F [Compound 36a, N-(3-cyano-4-fluoro-phenyl)-1,3,5-trimethyl-4-[2-oxo-2-[[(1S)-1-(trifluoromethyl)allyl]amino]acetyl]pyrrole-2-carboxamide] | < 1 | 
13 | C=C[C@@H](NC(=O)C(=O)c1c(C)c(C(=O)Nc2ccc(F)c(C#N)c2)n(C)c1C)C(F)(F)F [Compound 36b, N-(3-cyano-4-fluoro-phenyl)-1,3,5-trimethyl-4-[2-oxo-2-[[(1R)-1-(trifluoromethyl)allyl]amino]acetyl]pyrrole-2-carboxamide] | < 1 | 
14 | C#CC1(NC(=O)C(=O)c2c(C)c(C(=O)Nc3ccc(F)c(C(F)(F)F)c3)n(C)c2C)CC(F)(F)C1 [Compound 37, 4-[2-[(1-ethynyl-3,3-difluoro-cyclobutyl)amino]-2-oxo-acetyl]-N-[4-fluoro-3-(trifluoromethyl)phenyl]-1,3,5-trimethyl-pyrrole-2-carboxamide] | < 1 | 
15 | C#C[C@H](NC(=O)C(=O)c1c(C)c(C(=O)Nc2ccc(F)c(C(F)(F)F)c2)n(C)c1C)C1CC1 [Compound 38a, N-[4-fluoro-3-(trifluoromethyl)phenyl]-1,3,5-trimethyl-4-[2-oxo-2-[[(1R)-1-cyclopropylprop-2-ynyl]amino]acetyl]pyrrole-2-carboxamide] | < 1 | 
16 | C#C[C@@H](NC(=O)C(=O)c1c(C)c(C(=O)Nc2ccc(F)c(C(F)(F)F)c2)n(C)c1C)C1CC1 [Compound 38b, N-[4-fluoro-3-(trifluoromethyl)phenyl]-1,3,5-trimethyl-4-[2-oxo-2-[[(1S)-1-cyclopropylprop-2-ynyl]amino]acetyl]pyrrole-2-carboxamide] | < 1 | 
17 | C#CC1(NC(=O)C(=O)c2c(C)c(C(=O)Nc3ccc(F)c(C#N)c3)n(C)c2Cl)CC(F)(F)C1 [Compound 39, 5-chloro-N-(3-cyano-4-fluoro-phenyl)-4-[2-[(1-ethynyl-3,3-difluoro-cyclobutyl)amino]-2-oxo-acetyl]-1,3-dimethyl-pyrrole-2-carboxamide] | < 1 | 
18 | C#CC1(NC(=O)C(=O)c2c(C)c(C(=O)Nc3ccc(F)c(C#N)c3)n(C)c2Cl)COC1 [Compound 40, 5-chloro-N-(3-cyano-4-fluoro-phenyl)-4-[2-[(3-ethynyloxetan-3-yl)amino]-2-oxo-acetyl]-1,3-dimethyl-pyrrole-2-carboxamide] | < 1 | 
19 | C=CC1(NC(=O)C(=O)c2c(C)c(C(=O)Nc3ccc(F)c(C#N)c3)n(C)c2Cl)COC1 [Compound 41, 5-chloro-N-(3-cyano-4-fluoro-phenyl)-1,3-dimethyl-4-[2-oxo-2-[(3-vinyloxetan-3-yl)amino]acetyl]pyrrole-2-carboxamide] | 1 to 10 | 
20 | C#CC1(NC(=O)C(=O)c2c(C)c(C(=O)Nc3ccc(F)c(C(F)(F)F)c3)n(C)c2C)CC(O)C1 (stereo not shown) [Compound 49, 4-[2-[(1-ethynyl-3-hydroxy-cyclobutyl)amino]-2-oxo-acetyl]-N-[4-fluoro-3-(trifluoromethyl)phenyl]-1,3,5-trimethyl-pyrrole-2-carboxamide] | < 1 | 
21 | CC#CC1(NC(=O)C(=O)c2c(C)c(C(=O)Nc3ccc(F)c(C#N)c3)n(C)c2C)COC1 [Compound 50, N-(3-cyano-4-fluoro-phenyl)-1,3,5-trimethyl-4-[2-oxo-2-[(3-prop-1-ynyloxetan-3-yl)amino]acetyl]pyrrole-2-carboxamide] | < 1 | 
22 | C=CC1(NC(=O)C(=O)c2c(Cl)c(C(=O)Nc3ccc(F)c(C#N)c3)n(C)c2C)CC(F)(F)C1 [Compound 51, 3-chloro-N-(3-cyano-4-fluoro-phenyl)-4-[2-[(3,3-difluoro-1-vinyl-cyclobutyl)amino]-2-oxo-acetyl]-1,5-dimethyl-pyrrole-2-carboxamide] | < 1 | 
23 | C#CC1(NC(=O)C(=O)c2c(Cl)c(C(=O)Nc3ccc(F)c(C#N)c3)n(C)c2C)CC(F)(F)C1 [Compound 52, 3-chloro-N-(3-cyano-4-fluoro-phenyl)-4-[2-[(1-ethynyl-3,3-difluoro-cyclobutyl)amino]-2-oxo-acetyl]-1,5-dimethyl-pyrrole-2-carboxamide] | < 1 | 
24 | C=CC1(NC(=O)C(=O)c2c(C)c(C(=O)Nc3ccc(F)c(C#N)c3)n(C)c2C)CC(F)(F)C1 [Compound 53, N-(3-cyano-4-fluoro-phenyl)-4-[2-[(3,3-difluoro-1-vinyl-cyclobutyl)amino]-2-oxo-acetyl]-1,3,5-trimethyl-pyrrole-2-carboxamide] | 1 to 10 | 
25 | C#CC1(NC(=O)C(=O)c2c(F)c(C(=O)Nc3ccc(F)c(C#N)c3)n(C)c2C)COC1 [Compound 55, N-(3-cyano-4-fluoro-phenyl)-4-[2-[(3-ethynyloxetan-3-yl)amino]-2-oxo-acetyl]-3-fluoro-1,5-dimethyl-pyrrole-2-carboxamide] | < 1 | 
